Assay results as given in patent US11708348B2, “Protease inhibitors for treatment of coronavirus infections” (The Scripps Research Institute, priority 2021, dated 2023).
Counter-ions that a name gives are not always drawn. Like-named read-outs stand apart in the source and are kept apart here.

Test system: SARS-CoV-2 strain USA-WA1/2020
Assay: microbe, parasite or virus in culture
Format: cell-based
Settings: Severe acute respiratory syndrome coronavirus 2, HeLa-ACE2, 24 h, read-out: EC50, uM (Hela)
[1] = HeLa-ACE2 cells, SARS-CoV-2 infection, 24 h, class symbols
[2] = HeLa-ACE2 cells, SARS-CoV-2 infection, 24 h, cells given as a bound

Structure (SMILES) | EC50 [1] | other results
CC(C)C[C@H](NC(=O)C(=O)Nc1ccccc1F)C(=O)N[C@@H](C[C@@H]1CCNC1=O)C(=O)COc1cc(C(F)(F)F)on1 [Compound 141, N1-(2-fluorophenyl)-N2-((S)-4-methyl-1-oxo-1-(((S)-3-oxo-1-((S)-2-oxopyrrolidin-3-yl)-4-((5-(trifluoromethyl)isoxazol-3-yl)oxy)butan-2-yl)amino)pentan-2-yl)oxalamide] | 0.5 to 1 µM | –
CC(C)C[C@H](NC(=O)C(=O)Nc1ccccc1F)C(=O)N[C@@H](CCCCN)C(=O)COc1c(F)c(F)cc(F)c1F [Compound 142, N^1—((S)-1-(((S)-7-amino-2-oxo-1-(2,3,5,6-tetrafluorophenoxy)heptan-3-yl)amino)-4-methyl-1-oxopentan-2-yl)-N^2-(2-fluorophenyl)oxalamide hydrochloride] | – | EC50: < 0.05 µM
COCc1ccccc1NC(=O)C(=O)N[C@@H](CC(C)C)C(=O)N[C@@H](C[C@@H]1CCNC1=O)C(=O)COc1c(F)c(F)cc(F)c1F [Compound 143, N1-(2-(methoxymethyl)phenyl)-N2-((S)-4-methyl-1-oxo-1-(((S)-3-oxo-1-((S)-2-oxopyrrolidin-3-yl)-4-(2,3,5,6-tetrafluorophenoxy)butan-2-yl)amino)pentan-2-yl)oxalamide] | 0.05 to 0.2 µM | –
CC(C)C[C@H](NC(=O)Cc1cccc(Cl)c1)C(=O)N[C@@H](C[C@@H]1CCNC1=O)C(=O)COc1c(F)c(F)cc(F)c1F [Compound 144, (S)-2-(2-(3-chlorophenyl)acetamido)-4-methyl-N—((S)-3-oxo-1-((S)-2-oxopyrrolidin-3-yl)-4-(2,3,5,6-tetrafluorophenoxy)butan-2-yl)pentanamide] | – | EC50 [2]: > 1 µM
CC(C)C[C@H](NC(=O)C(=O)N[C@H]1CCCc2ccccc21)C(=O)N[C@@H](C[C@@H]1CCNC1=O)C(=O)COc1c(F)c(F)cc(F)c1F [Compound 145, N^1—((S)-4-methyl-1-oxo-1-(((S)-3-oxo-1-((S)-2-oxopyrrolidin-3-yl)-4-(2,3,5,6-tetrafluorophenoxy)butan-2-yl)amino)pentan-2-yl)-N^2—((S)-1,2,3,4-tetrahydronaphthalen-1-yl)oxalamide] | 0.2 to 0.5 µM | –
CC(C)C[C@H](NC(=O)[C@H](O)c1cccc(Cl)c1)C(=O)N[C@@H](C[C@@H]1CCNC1=O)C(=O)COc1c(F)c(F)cc(F)c1F [Compound 146, (S)-2-((R)-2-(3-chlorophenyl)-2-hydroxyacetamido)-4-methyl-N-((S)-3-oxo-1-((S)-2-oxopyrrolidin-3-yl)-4-(2,3,5,6-tetrafluorophenoxy)butan-2-yl)pentanamide] | 0.05 to 0.2 µM | –
CC(C)C[C@H](NC(=O)C(=O)N[C@@H]1CCCc2ccccc21)C(=O)N[C@@H](C[C@@H]1CCNC1=O)C(=O)COc1c(F)c(F)cc(F)c1F [Compound 147, N1-((S)-4-methyl-1-oxo-1-(((S)-3-oxo-1-((S)-2-oxopyrrolidin-3-yl)-4-(2,3,5,6-tetrafluorophenoxy)butan-2-yl)amino)pentan-2-yl)-N2-((R)-1,2,3,4-tetrahydronaphthalen-1-yl)oxalamide] | 0.5 to 1 µM | –
Cc1ccccc1NC(=O)C(=O)N[C@@H](Cc1ccccn1)C(=O)N[C@@H](C[C@@H]1CCNC1=O)C(=O)COc1c(F)c(F)cc(F)c1F [Compound 148, N1-((S)-1-oxo-1-(((S)-3-oxo-1-((S)-2-oxopyrrolidin-3-yl)-4-(2,3,5,6-tetrafluorophenoxy)butan-2-yl)amino)-3-(pyridin-2-yl)propan-2-yl)-N2-(o-tolyl)oxalamide] | 0.05 to 0.2 µM | –
CC(C)C[C@H](NC(=O)C(=O)N1CCCc2ccccc21)C(=O)N[C@@H](C[C@@H]1CCNC1=O)C(=O)COc1c(F)c(F)cc(F)c1F [Compound 149, (S)-2-(2-(3,4-dihydroquinolin-1(2H)-yl)-2-oxoacetamido)-4-methyl-N-((S)-3-oxo-l-((S)-2-oxopyrrolidin-3-yl)-4-(2,3,5,6-tetrafluorophenoxy)butan-2-yl)pentanamide] | 0.05 to 0.2 µM | –
CC(C)C[C@H](NC(=O)O[C@H]1CO[C@H]2OCC[C@H]21)C(=O)N[C@@H](C[C@@H]1CCNC1=O)C(=O)COc1c(F)c(F)cc(F)c1F [Compound 150, (3R,3aS,6aR)-hexahydrofuro[2,3-b]furan-3-yl ((S)-4-methyl-1-oxo-1-(((S)-3-oxo-1-((S)-2-oxopyrrolidin-3-yl)-4-(2,3,5,6-tetrafluorophenoxy)butan-2-yl)amino)pentan-2-yl)carbamate] | 0.2 to 0.5 µM | –
CC(C)C[C@H](NC(=O)C(=O)NC1CCC(F)(F)CC1)C(=O)N[C@@H](C[C@@H]1CCNC1=O)C(=O)COc1c(F)c(F)cc(F)c1F [Compound 151, N^1-(4,4-difluorocyclohexyl)-N^2—((S)-4-methyl-1-oxo-1-(((S)-3-oxo-1-((S)-2-oxopyrrolidin-3-yl)-4-(2,3,5,6-tetrafluorophenoxy)butan-2-yl)amino)pentan-2-yl)oxalamide] | 0.05 to 0.2 µM | –
Cc1cccc(C)c1NC(=O)C(=O)N[C@@H](CC(C)C)C(=O)N[C@@H](C[C@@H]1CCNC1=O)C(=O)COC(F)(F)F [Compound 152, N1-(2,6-dimethylphenyl)-N2-((S)-4-methyl-1-oxo-1-(((S)-3-oxo-1-((S)-2-oxopyrrolidin-3-yl)-4-(trifluoromethoxy)butan-2-yl)amino)pentan-2-yl)oxalamide] | < 0.05 µM | –
CC(C)C[C@H](NC(=O)c1ccc2c(c1)OC(F)(F)O2)C(=O)N[C@@H](C[C@@H]1CCNC1=O)C(=O)COC(F)(F)F [Compound 153, 2,2-difluoro-N-((S)-4-methyl-1-oxo-1-(((S)-3-oxo-1-((S)-2-oxopyrrolidin-3-yl)-4-(trifluoromethoxy)butan-2-yl)amino)pentan-2-yl)benzo[d][l,3]dioxole-5-carboxamide] | < 0.05 µM | –
COc1ccc(C(C)=O)cc1CC(=O)N[C@@H](CC(C)C)C(=O)N[C@@H](C[C@@H]1CCNC1=O)C(=O)COc1c(F)c(F)cc(F)c1F [Compound 154, (S)-2-(2-(5-acetyl-2-methoxyphenyl)acetamido)-4-methyl-N—((S)-3-oxo-1-((S)-2-oxopyrrolidin-3-yl)-4-(2,3,5,6-tetrafluorophenoxy)butan-2-yl)pentanamide] | < 0.05 µM | –
CC(C)C[C@H](NC(=O)c1nc2ccccc2[nH]1)C(=O)N[C@@H](C[C@@H]1CCNC1=O)C(=O)COC(F)(F)F [Compound 156, N-((S)-4-methyl-1-oxo-1-(((S)-3-oxo-1-((S)-2-oxopyrrolidin-3-yl)-4-(trifluoromethoxy)butan-2-yl)amino)pentan-2-yl)-1H-benzo[d]imidazole-2-carboxamide] | < 0.05 µM | –
COc1cccc2[nH]c(C(=O)N[C@@H](CC(C)C)C(=O)N[C@@H](C[C@@H]3CCNC3=O)C(=O)COC(C(F)(F)F)C(F)(F)F)cc12 [Compound 157] | – | EC50 [2]: > 1 µM
COc1cccc2[nH]c(C(=O)N[C@@H](CC(C)C)C(=O)N[C@@H](C[C@@H]3CCNC3=O)C(=O)COC(F)(F)F)cc12 [Compound 158, 4-methoxy-N—((S)-4-methyl-1-oxo-1-(((S)-3-oxo-1-((S)-2-oxopyrrolidin-3-yl)-4-(trifluoromethoxy)butan-2-yl)amino)pentan-2-yl)-1H-indole-2-carboxamide] | < 0.05 µM | –
CC(C)C[C@H](NC(=O)C(=O)Nc1c(C(C)C)cccc1C(C)C)C(=O)N[C@@H](C[C@@H]1CCNC1=O)C(=O)COC(F)(F)F [Compound 159, Nl-(2,6-diisopropylphenyl)-N2-((S)-4-methyl-1-oxo-1-(((S)-3-oxo-1-((S)-2-oxopyrrolidin-3-yl)-4-(trifluoromethoxy)butan-2-yl)amino)pentan-2-yl)oxalamide] | < 0.05 µM | –
